The values that follow are results of earlier work, collected in patent US20150010635A1, “CONTROLLED RELEASE PARTICLES, WOOD TREATMENT AGENT, AND PRODUCING METHOD THEREOF” (Japan EnviroChemicals, Ltd., priority 2011, published 2015).

Like-named read-outs stand apart in the source and are kept apart here.

As for `CC1(C)C(C=C(Cl)Cl)C1C(=O)OCc1cccc(Oc2ccccc2)c1` (stereo not drawn) [Permethrin, 3-phenoxybenzyl(1RS,3RS;1RS,3SR)-3-(2,2-dichlorovinyl)-2,2-dimethylcyclopropanecarboxylate], the water solubility is recorded as 6 ppb.

Consider `CCCC1COC(Cn2cncn2)(c2ccc(Cl)cc2Cl)O1` (stereo not shown) [Propiconazole, 1-[2-(2,4-dichlorophenyl)-4-n-propyl-1,3-dioxolane-2-ylmethyl]-1H-1,2,4-triazole], for which the water solubility (room temperature) was 110 ppm. Take `CCOc1ccc(C(C)(C)COCc2cccc(Oc3ccccc3)c2)cc1` [Ethofenprox, 2-(4-ethoxyphenyl)-2-methylpropyl-3-phenoxybenzylether]: the water solubility is recorded as 22.5 ppb. Turning to `CCN(CC)C(=O)c1cccc(C)c1` [DEET, N,N-diethyl-m-toluamide], the water solubility (room temperature) is on record as 990 ppm.
